Experimental data published in patent US20110268757A1, “USE OF PHENOL-SOLUBLE MODULINS FOR VACCINE DEVELOPMENT” (INSTITUT PASTEUR, priority 2008, published 2011).

What was measured:
[1] = tested on: IFNγ producing cells specific for peptide p1073 from hepatitis C NS3 protein; assay: ELISPOT of IFNγ producing cells specific for peptide 1073 after immunization; type: in vivo; settings: 5 nmoles peptide with poly I:C, seven days after immunization
Method: For the analysis of IFNγ-producing cells specific for […] and induced in vivo by the immunizations, ELISPOT experiments were carried out using a BD-pharmingen kit (San Diego, Calif.) and according to the instructions of the manufacturer. Briefly, the plates (Multiscreen HTS, Millipore, Bedford, Mass.) incubated overnight with the anti-IFNγ antibody were blocked for 2 hours with HL-1 medium (Biowhittaker, Verviers, Belgium) containing 10% horse serum. Thus, 5×10^5 splenocytes were incubated in triplicate in the absence or in the presence of the antigens at 37° C. and 5% CO2. On the following day, the plates were washed with PBS and incubated with biotinylated anti-IFNγ antibody (2 mg/ml). After two hours, the plates were washed and incubated with a 1/100 dilution of streptavidin-peroxidase. One hour later, the wells were washed and developed using the AEC substrate set (BD-Pharmingen). The colorimetric reaction was stopped with distilled water and the number of spots was quantified using an ELISPOT automatic reader (CTL, Aalen, Germany).
(§1) Thus the peptides αMod-1073, γMod-1073 and δMod-1073 as well as the peptide p1073 alone were synthesized. HELD transgenic mice (which express the human HLA_A2 molecule) were immunized with 5 nmoles of the corresponding peptide in the presence of poly I:C. Seven days after immunization, ELISPOT and in vivo killing assays were carried out as described above using target cells pulsed with peptide 1073.

[2] = tested on: target cells pulsed with peptide 1073; assay: In vivo killing assay using target cells pulsed with peptide 1073; settings: 5 nmoles peptide with poly I:C, seven days after immunization
Method: C57BL6 mice were intravenously immunized intravenously with 5 nmoles of the indicated peptides in combination with 50 μg of the TLR3 ligand poly I:C. In some cases, the peptides were immunized in the presence of TLR2 (peptidoglycan), TLR4 (LPS or the EDA protein) or TLR9 (CpG) ligand. […] On the following day, the mice were sacrificed and the splenocytes were analyzed by flow cytometry to quantify the number of cells with high CFSE labeling with respect to the cells with low CFSE labeling. Thus, the percentage of cell lysis of the cells incubated with the cytotoxic […] peptide can be calculated in an experiment called in vivo killing.
as §1

[3] = tested on: dendritic cells derived from bone marrow; assay: Expression of messenger RNA for IL-12 p40 and TNFα in dendritic cells (real-time PCR); type: cell-based, mouse; settings: 50 μM peptide, 16 hours, versus culture medium alone, p<0.05
Method: (§2) Dendritic cells were grown from bone marrow cells. […] The remaining cells grew in 12 culture plates in complete medium with 10^6 cells/ml supplemented with 20 ng/ml of mGM-CSF and 20 ng/ml of mIL-4 (both from Peprotech; London, GB). Every 2 days the medium was substituted with fresh medium containing cytokines. On day 7, non-adherent dendritic cells were collected, and cultured in the presence or absence of 50 μM of modulin peptides or of 1 μg/ml of LPS (Sigma) and incubated for 48 hours at 37° C. and 5% CO2. After this period, the cells were isolated and incubated with anti IAb, CD54 and CD86 antibodies (Pharmingen). In parallel experiments, the dendritic cells were incubated with the indicated stimuli for 16 hours, after which the expression of the messenger RNA for the p40 molecules of IL-12 and of TNF-α was analyzed.
The total RNA of dendritic cells incubated for 16 hours with the different stimuli indicated above were extracted using the Nucleic Acid Purification Lysis Solution (Applied BioSystems, Foster City, Calif.) and the ABI PRISM 6100 Nucleic Acid PrepStation (Applied BioSystems) semiautomatic system.

[4] = tested on: dendritic cells derived from bone marrow; assay: Upregulation of maturation markers on dendritic cells (flow cytometry); type: cell-based, mouse; settings: 50 μM peptide, 48 hours
Method: as §2
Expression of DC maturation markers was measured by flow cytometry. DC were harvested and pre-incubated with a rat anti-CD16/32 mAb (2.4G2 clone, BD Pharmingen) for 15 min, to block non-specific binding of primary antibodies. After this initial incubation, cells were stained with the primary antibodies at 4° C. for 15 min, washed and acquired on FACSscan cytometer (BD Biosciences, San Diego, Calif.) and analyzed using Cell Quest software (BD Biosciences).

[5] = tested on: TC-1 tumor cells (expressing the E7 protein of the HPV-16 virus); assay: Treatment of mice carrying TC1 subcutaneous tumors; type: in vivo, C57B/6 mice; settings: TC1 tumors of 8 mm diameter, i.v. peptide plus 50 μg/ml poly I:C, second immunization seven days later
Method: The C57B/6 mice were subcutaneously injected with 5×10^5 TC-1 tumor cells (expressing the E7 protein of the HPV-16 virus). After 25 days, when the tumor reaches a diameter of 8 mm, the mice are intravenously treated with PBS (B), with peptide E7(49-57) plus 50 μg/ml poly I:C(C), or with peptide αMod-E7(49-57) plus 50 μg/ml poly I:C (D). Seven days later, the mice received a second immunization of the same immunogens. The tumor size, presented as the average of two perpendicular diameters, was measured at regular intervals using a gauge. The number of tumor-free mice relative to the total number of animals per group is included for each treatment.

mouse splenocytes = assay: Binding of CFSE labeled peptides to glutaraldehyde-fixed splenocytes (flow cytometry); type: cell-based; settings: unlabeled competitor 100 μM, 20 μM CFSE γMod-SIINFEKL
Method: Binding assays were carried out using either splenocytes (FIG. 1, panels A B, D, E and G) or bone marrow derived dendritic cells (FIG. 1, panels C and F). The cells were fixed by means of an incubation with a 0.4% glutaraldehyde solution for 15 minutes at 4° C. 5×10^5 fixed cells were incubated in the presence of 20 μM CFSE αMod-[sequence] (FIG. 1, panels A, B and C), or CFSE γMod-[sequence] (FIG. 1, panels D, E, F and G). In some assays, and to study the specificity of CFSE labeled peptide binding, these incubations were carried out in the presence or absence of the unlabeled peptides αMod-[sequence], γMod-[sequence] or [sequence] (100 μM) (panels B and E). Also, we carried out binding assays using the CFSE labeled peptide CFSE-OVA (235-264) as a negative control (FIG. 1, panels A, C, D and F). After 30 minutes of incubation at 4° C., two washings with PBS were carried out and the performed labeling was analyzed by flow cytometry. In some experiments (FIG. 1G), double staining was carried out using anti-CD4, CD8, CD11c, CD19, F480 or GR1(CD117) antibodies labeled with phycoerythrin (Pharmingen) together with the CFSE-γMod-[sequence] peptide. In these cases, the labeling with the specific antibodies was carried out before fixing the cells with glutaraldehyde.

EG7OVA tumor cells [6] = assay: Treatment of mice bearing established EG7OVA tumors; type: in vivo, C57BL/6 mice; settings: EG7OVA tumors of 5 mm diameter at treatment, peptide plus poly I:C, p<0.05
Method: Protection against the challenge with EG7 tumor cells expressing the OVA protein C57BL6 mice were subcutaneously immunized with 5 nmol of the indicated peptides in combination with poly I:C. Seven days after the immunization, the mice were subcutaneously injected with 5×10^5 or with 5×10^7 EG7OVA cells. In some experiments, mice were first challenged s.c with 5×10^5 cells and when tumors reached 5 mm in diameter they were treated with the indicated peptide. The tumor growth was controlled with a gage. Mice were sacrificed when the tumor reached a volume greater than 4 cm^3. Kaplan-Meier plot of mice survival for each immunogen is depicted.

EG7OVA tumor cells [7] = assay: Protection against the challenge with EG7OVA tumor cells after immunization; type: in vivo, C57BL/6 mice; settings: 5 nmoles peptide with poly I:C
Method: Protection against the challenge with EG7 tumor cells expressing the OVA protein C57BL6 mice were subcutaneously immunized with 5 nmol of the indicated peptides in combination with poly I:C. […] In some experiments, mice were first challenged s.c with 5×10^5 cells and when tumors reached 5 mm in diameter they were treated with the indicated peptide. The tumor growth was controlled with a gage. Mice were sacrificed when the tumor reached a volume greater than 4 cm^3. Kaplan-Meier plot of mice survival for each immunogen is depicted.

[8] = tested on: T cells from OT-1 transgenic mice; assay: Antigen presentation assay: proliferation of OT-1 T cells (tritiated thymidine); type: cell-based, mouse; settings: dendritic cells incubated with 10 μM peptide
Method: Dendritic cells derived from bone marrow were cultured in the presence or absence of 10 μM of the indicated peptides (FIG. 3). Forty hours later, the cells were washed and distributed in 96-well plates at different concentrations and incubated in the presence of 10^5 T cells/well obtained from OT-1 transgenic mice (which express a specific T receptor for the SIINFEKL peptide of ovalbumin. Seventy-two hours later, tritiated thymidine was added to the cultures and six hours later the cells were harvested and the incorporated thymidine was analyzed in a scintillation counter (Topcount Packard).

[9] = tested on: IFNγ-producing cells in response to the SIINFEKL peptide; assay: ELISPOT of IFNγ-producing cells specific for SIINFEKL after immunization; type: in vivo, C57BL/6 mice; settings: 5 nmoles peptide plus 50 μg poly I:C
Method: C57BL6 mice were intravenously immunized intravenously with 5 nmoles of the indicated peptides in combination with 50 μg of the TLR3 ligand poly I:C. In some cases, the peptides were immunized in the presence of TLR2 (peptidoglycan), TLR4 (LPS or the EDA protein) or TLR9 (CpG) ligand. Seven days after the immunization, the mice were intravenously injected with a mixture of 5×10^6 splenocytes, half of which had been previously labeled with a dose of 0.25 μM C and the other half with 2.5 uM CFSE and the SIINFEKL peptide (10 μg/ml). On the following day, the mice were sacrificed and the splenocytes were analyzed by flow cytometry to quantify the number of cells with high CFSE labeling with respect to the cells with low CFSE labeling. Thus, the percentage of cell lysis of the cells incubated with the cytotoxic SIINFEKL peptide can be calculated in an experiment called in vivo killing.
For the analysis of IFNγ-producing cells specific for SIINFEKL and induced in vivo by the immunizations, ELISPOT experiments were carried out using a BD-pharmingen kit (San Diego, Calif.) and according to the instructions of the manufacturer. Briefly, the plates (Multiscreen HTS, Millipore, Bedford, Mass.) incubated overnight with the anti-IFNγ antibody were blocked for 2 hours with HL-1 medium (Biowhittaker, Verviers, Belgium) containing 10% horse serum. Thus, 5×10^5 splenocytes were incubated in triplicate in the absence or in the presence of the antigens at 37° C. and 5% CO2. On the following day, the plates were washed with PBS and incubated with biotinylated anti-IFNγ antibody (2 mg/ml). After two hours, the plates were washed and incubated with a 1/100 dilution of streptavidin-peroxidase. One hour later, the wells were washed and developed using the AEC substrate set (BD-Pharmingen). The colorimetric reaction was stopped with distilled water and the number of spots was quantified using an ELISPOT automatic reader (CTL, Aalen, Germany).
For the analysis of IFNγ-producing cells in the presence of SIINFEKL and induced in vivo by the immunizations, ELISPOT experiments were carried out using a BD-pharmingen kit (San Diego, Calif.) and according to the instructions of the manufacturer, in the same manner as in Example 3.

[10] = tested on: splenocytes pulsed with the SIINFEKL peptide; assay: In vivo killing assay against SIINFEKL-pulsed splenocytes after immunization; parameters: species or system C57BL/6 mice; settings: 5 nmoles peptide plus 50 μg poly I:C
Method: C57BL6 mice were intravenously immunized intravenously with 5 nmoles of the indicated peptides in combination with 50 μg of the TLR3 ligand poly I:C. In some cases, the peptides were immunized in the presence of TLR2 (peptidoglycan), TLR4 (LPS or the EDA protein) or TLR9 (CpG) ligand. […] On the following day, the mice were sacrificed and the splenocytes were analyzed by flow cytometry to quantify the number of cells with high CFSE labeling with respect to the cells with low CFSE labeling. Thus, the percentage of cell lysis of the cells incubated with the cytotoxic SIINFEKL peptide can be calculated in an experiment called in vivo killing.
C57BL6 wild type mice and knockout mice were immunized for TLR2 with the aim of studying the dependence on TLR2 in the immunostimulating capacity of modulin-derived peptides. Thus, different mice were injected with 5 nmoles of the indicated peptides or with PBS in combination with 50 μg of the TLR3 ligand poly I:C. […] On the following day, the mice were sacrificed and the splenocytes were analyzed by flow cytometry to quantify the number of cells with high CFSE labeling with respect to the cells with low CFSE labeling in the same manner as in Example 3.

CVNGVCWTV [Peptide 1073, reference compound]
IFNγ producing cells specific for peptide 1073 (ELISPOT) [1]: not found | CTL activity against peptide 1073 (in vivo killing) [2]: not found

MAADIISTIGDLVKWIIDTVNKFKK [γMod]
expression of messenger RNA for IL-12 (p40) [3]: capable of increasing the expression | expression of messenger RNA for TNF-alpha [3]: capable of increasing the expression | expression of CD54 on dendritic cells [4]: promotes the expression | expression of the IAb molecule on dendritic cells [4]: promotes the expression

MAADIISTIGDLVKWIIDTVNKFKKCVNGVCWTV [γMod-1073]
IFNγ producing cells specific for peptide 1073 (ELISPOT) [1]: high numbers of IFNγ producing cells | CTL activity against peptide 1073 (in vivo killing) [2]: high levels of CTL activity

MADVIAKIVEIVKGLIDQFTQK (Staphylococcus epidermidis RP62A) [αMod]
expression of messenger RNA for IL-12 (p40) [3]: capable of increasing the expression | expression of messenger RNA for TNF-alpha [3]: capable of increasing the expression | expression of CD54 on dendritic cells [4]: activates the expression | expression of CD86 on dendritic cells [4]: activates the expression | expression of the IAb molecule on dendritic cells [4]: activates the expression

MADVIAKIVEIVKGLIDQFTQKCVNGVCWTV [αMod-1073]
IFNγ producing cells specific for peptide 1073 (ELISPOT) [1]: strong T cell immune responses | CTL activity against peptide 1073 (in vivo killing) [2]: strong T cell immune responses

MSIVSTIIEVVKTIVDIVKKFKKCVNGVCWTV [δMod-1073]
IFNγ producing cells specific for peptide 1073 (ELISPOT) [1]: high numbers of IFNγ producing cells | CTL activity against peptide 1073 (in vivo killing) [2]: high levels of CTL activity

RAHYNIVTF [E7(49-57), reference compound]
number of tumor-free (cured) mice relative to the total number of mice [5]: 4 of 11

SIINFEKL [reference compound]
reduction of the bright fluorescence of CFSE γMod-SIINFEKL on splenocytes by unlabeled peptide (mouse splenocytes): did not affect this signal | mice rejecting the established tumor (EG7OVA tumor cells [6]): 0% | protection from tumor growth after EG7OVA challenge (EG7OVA tumor cells [7]; 5×10^5 EG7OVA cells s.c. seven days after immunization (FIG. 5A)): developed tumors | protection from tumor growth after EG7OVA challenge (EG7OVA tumor cells [7]; 7×10^5 EG7OVA cells s.c. seven days after immunization (FIG. 5B)): developed tumors | proliferation of OT-1 T lymphocytes stimulated by peptide-incubated dendritic cells [8]: proliferate better | IFNγ-producing cells in response to SIINFEKL (ELISPOT) ([9]; 60 days after immunization): not capable of inducing | IFNγ-producing cells in response to SIINFEKL (ELISPOT) ([9]; seven days after immunization): not capable of activating these responses | cells with lysis capacity against SIINFEKL (in vivo killing) ([10]; 60 days after immunization): not capable of inducing | specific cytotoxic activity against SIINFEKL (in vivo killing) ([10]; seven days after immunization): not capable of activating these responses

polyinosinic-polycytidylic acid [poly I:C]
mice rejecting the established tumor (EG7OVA tumor cells [6]): 0%
